Where a name gives a salt, the structure may show the parent alone. Where a SMILES comes first, the peptide text is derived from it. The star is where a group is joined. pNA = O=[N+]([O-])c1ccc(N*)cc1; Tos = Cc1ccc(S(=O)(=O)*)cc1; Cbz = O=C(OCc1ccccc1)*; Bz = O=C(c1ccccc1)*

The source of these data is patent US4070245A, “Substrate for the quantitative determination of proteolytic enzymes” (Pentapharm A.G., priority 1975, dated 1978).

One series concerns the target T1, human ecarin-thrombin (Homo sapiens, UniProt P00734).
T1 construct: 0.28 NIH/ml of human ecarin-thrombin
Nature of the series: Enzymatic release of p-nitroaniline from substrate by human ecarin-thrombin. It counts as biochemical. The note with it: substrate concentration 10^-4 M; pH 8.4, ionic strength 0.15, 37° C.

The target of the next series is human thrombin coagulase (Homo sapiens, UniProt P00734). Nature of the series: Enzymatic release of p-nitroaniline from substrate by human thrombin coagulase (staphylo-thrombin). The class given is biochemical. The note with it: substrate concentration 10^-4 M; pH 8.4, ionic strength 0.15, 37° C.
In series [1] the target is batroxobin (thrombin-like enzyme from venom of Bothrops moojeni) (Bothrops atrox, UniProt P04971). It counts as biochemical. As to conditions: pH 8.4.
The nature of another series: Solubility in water. It counts as physicochemical. The note with it: for solubility: water.
In series [2] the target is T2, human thrombin (Homo sapiens, UniProt P00734).
T2 construct: 0.56 NIH/ml of human thrombin
Nature of the series: Enzymatic release of split product NH2-R2 from chromogenic/fluorogenic substrate by human thrombin. The class given is biochemical. The note with it: in words, from Table 1. As to the method: The degree of the enzymatic hydrolysis of the substrate, which is proportional to the quantity of p-Nitroaniline formed, can be easily determined by spectrophotometric measurement at 405 nm. […] The conditions are practically the same for the other substrates carrying a p-nitroanilino group as a chromogenic group. The spectrophotometric measurement was therefore, carried out in all cases at 405 nm.
The mixture was pre-incubated for 2 minutes at 37° C. […] The increase in the absorption was measured spectrophotometrically at 405 nm and continuously followed by means of a recording device. The measuring results listed in Tables 1 and 2 were all obtained under the test conditions defined above. The quantity of the formed split product NH2 --R^2 is a measure for the susceptibility of the substrate to the enzymes. […] For determining the quantity (nanomole) of p-napthylamine and 4-methoxy-β-naphthylamine (substrates XII to XV, XVIII and XIX), respectively, formed per minute the samples were irradiated in a fluorescence photometer with light having a wave length of 350 nm. The quantity of the formed split product was determined by measuring the intensity of the light emitted at 420 nm.

The target of series [3] is T2, human thrombin. Nature of the series: Km and vmax from Lineweaver-Burk diagram, human thrombin. The class given is biochemical. As to conditions: ionic strength 0.15, pH 8.4, 37° C; for Km: tris-imidazole buffer, graphically from Lineweaver-Burk diagram; for vmax: value marked NIH. The method, then: (§1) As is evident from equation (2) constants Km and k3 determine the activity of the enzyme substrate for a given enzyme. For determining these constants the following procedure is followed:
(§2) The enzyme and the substrate are mixed in a buffer solution, and the reaction is followed spectrophotometrically for 2 to 30 minutes. The concentration of substrate [S] is varied, whereas the enzyme concentration [E] is kept constant. If the extinction (OD) (= optical density) is plotted in a co-ordinate system as a function of time, a curve is obtained the tangent of which (difference in extinction per minute, Δ OD/minute, from which the quantity in μmoles of pNA/min (v) can be calculated) at time zero corresponds to the ideal course of the hydrolysis. By means of this tangent the initial rate of the hydrolysis can be determined.
Km and vmax were determined for the enzymes by means of the LineweaverBurk equation (the Lineweaver-Burk diagram is shown in FIG. 7 of the drawings attached to the specification). […] According to the same principle Km and vmax were determined for the other enzymes. All determinations were carried out in trisimidazole buffer at an ionic strength of 0.15 and a pH of 8.4 at 37° C.

Another series concerns the target T3, human plasmin (Homo sapiens, UniProt P00747).
T3 construct: 0.4 CU/ml of human plasmin
Nature of the series: Km and vmax from Lineweaver-Burk diagram, human plasmin. The class given is biochemical. As to conditions: value marked CU, ionic strength 0.15, pH 8.4, 37° C. The method, then: as §1, §2
(§3) If 1/v is plotted against 1/[S], a Lineweaver-Burk diagram (cf. "Kurzes Lehrbuch der Biochemie" by P. KARSON, Georg Thieme-Verlag, Stuttgart, 1967., p. 70) is obtained from which vmax and Km can be determined graphically. [formula] were determined with N^α-Cbo-Gly-Pro-Arg-pNA.HCl (substrate according to Example 1) for human thrombin, human plasmin and bovine trypsin. Km and vmax were determined for the enzymes by means of the LineweaverBurk equation (the Lineweaver-Burk diagram is shown in FIG. 7 of the drawings attached to the specification). […]

The target of the next series is T4, bovine trypsin (Bos taurus, UniProt P00760).
T4 construct: 1.8 NF/ml of bovine trypsin
T4 sequence (P00760 24-246): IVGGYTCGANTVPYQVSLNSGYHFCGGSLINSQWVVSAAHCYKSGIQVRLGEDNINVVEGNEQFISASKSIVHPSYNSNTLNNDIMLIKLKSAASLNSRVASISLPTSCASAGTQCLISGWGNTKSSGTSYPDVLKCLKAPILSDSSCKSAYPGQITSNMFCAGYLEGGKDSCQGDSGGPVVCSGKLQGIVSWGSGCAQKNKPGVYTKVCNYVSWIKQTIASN
Nature of the series: Km and vmax from Lineweaver-Burk diagram, bovine trypsin. The class given is biochemical. As to conditions: value marked NF, ionic strength 0.15, pH 8.4, 37° C. The method, then: as §1, §2, §3

Substrate in series [4]: Cc1ccc(S(=O)(=O)NCC(=O)N2CCC[C@H]2C(=O)N[C@@H](CCCNC(=N)N)C(=O)Nc2ccc([N+](=O)[O-])cc2)cc1
Nature of the series: Km and vmax from Lineweaver-Burk diagram, human plasmin. It counts as biochemical. As to conditions: other: human plasmin, tris-imidazole buffer, ionic strength 0.15, pH 8.4, 37° C. The method, then:
as §1, §2, §3

Substrate in series [5]: N=C(N)NCCC[C@H](NC(=O)[C@@H]1CCCN1C(=O)CNC(=O)OCc1ccccc1)C(=O)Nc1ccc([N+](=O)[O-])cc1
The series is described as above. It counts as biochemical. As to conditions: other: human plasmin, tris-imidazole buffer, ionic strength 0.15, pH 8.4, 37° C. As to the method:
as §1, §2, §3

batroxobin (thrombin-like enzyme from venom of Bothrops moojeni), sequence (P04971 25-255 limits assumed): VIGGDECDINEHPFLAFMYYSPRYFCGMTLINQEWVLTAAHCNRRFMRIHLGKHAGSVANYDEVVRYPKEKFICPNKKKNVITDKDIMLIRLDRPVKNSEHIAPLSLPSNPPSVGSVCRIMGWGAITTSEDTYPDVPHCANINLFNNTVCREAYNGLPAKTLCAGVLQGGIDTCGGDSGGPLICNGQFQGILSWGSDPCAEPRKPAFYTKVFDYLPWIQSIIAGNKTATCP

`CC(C)[C@H](NC(=O)[C@H](Cc1ccccc1)NC(=O)c1ccccc1)C(=O)N[C@@H](CCCNC(=N)N)C(=O)Nc1ccc([N+](=O)[O-])cc1` [N^α -Bz-Phe-Val-Arg-pNA . HCl, N^α -Bz-Phe-Val-Arg-pNA.HCl, reference compound] (Bz-Phe-Val-Arg-pNA): on human ecarin-thrombin, the “Quantity of p-nitroaniline enzymatically split off from the substrate in 1 minute by the quantity of human ecarin-thrombin corresponding to 1 NIH” value amounted to 30.7 nmol. The “Quantity of p-nitroaniline enzymatically split off from the substrate in 1 minute by the quantity of human thrombin coagulase corresponding to 1 NIH” value at human thrombin coagulase was 102 nmol. Further, in [1], the “Quantity of p-nitroaniline enzymatically split off from the substrate in 1 minute by the quantity of batroxobin corresponding to 1 NIH” value is 3.26 nmol. Also, in “Solubility in water”, the solubility is approximately 1000 µg/mL.
Turning to `N=C(N)NCCC[C@H](NC(=O)[C@@H]1CCCN1C(=O)CNC(=O)OCc1ccccc1)C(=O)Nc1ccc([N+](=O)[O-])cc1` [Substrate I, N^α -Cbo-Gly-Pro-Arg-pNA.HCl] (Cbz-Gly-Pro-Arg-pNA), the “susceptibility to human thrombin compared with N^α -Bz-Phe-Val-Arg-pNA.HCl” value at human thrombin [2] is “much higher”. Further, the “Quantity of p-nitroaniline enzymatically split off from the substrate in 1 minute by the quantity of human ecarin-thrombin corresponding to 1 NIH” value on human ecarin-thrombin was 246.4 nmol. The “Quantity of p-nitroaniline enzymatically split off from the substrate in 1 minute by the quantity of human thrombin coagulase corresponding to 1 NIH” value on human thrombin coagulase was 575 nmol. Besides, the “Quantity of p-nitroaniline enzymatically split off from the substrate in 1 minute by the quantity of batroxobin corresponding to 1 NIH” value in [1] was determined as 15.81 nmol. Also, the Km on human thrombin [3] is 57.1 µM. Also, the vmax at human thrombin [3] was determined as 0.0534 µmol/L; on human plasmin it was 0.673 µmol/L; on bovine trypsin, 0.0427 µmol/L. In “Solubility in water” (ratio to prior art thrombin substrate), the “solubility in water relative to Bz-Phe-Val-Arg-pNA.HCl” value worked out at 4 times. For the same molecule, the solubility in “Solubility in water” is more than 4000 µg/mL.
As to `Cc1ccc(S(=O)(=O)NCC(=O)N2CCC[C@H]2C(=O)N[C@@H](CCCNC(=N)N)C(=O)Nc2ccc([N+](=O)[O-])cc2)cc1` [Substrate VII, n^α -tos-Gly-Pro-Arg-pNA.HCl] (Tos-Gly-Pro-Arg-pNA), the “susceptibility to human thrombin compared with N^α -Bz-Phe-Val-Arg-pNA.HCl” value on human thrombin [2] is given as “much higher”. The Km on human thrombin [3] is 17 µM. Moreover, the vmax was 0.0757 µmol/L on human thrombin [3], 0.618 µmol/L on human plasmin and 0.0297 µmol/L on bovine trypsin.
For `N=C(N)NCCC[C@H](NC(=O)[C@@H]1CCCN1C(=O)CNS(=O)(=O)c1ccccc1)C(=O)Nc1ccc([N+](=O)[O-])cc1` [Substrate VIII, n^α -benzenesulfonyl-Gly-Pro-Arg-pNA.NCl], the “susceptibility to human thrombin compared with N^α -Bz-Phe-Val-Arg-pNA.HCl” value on human thrombin [2] was “much higher”.
For the molecule `CC(C)COC(=O)NCC(=O)N1CCC[C@H]1C(=O)N[C@@H](CCCNC(=N)N)C(=O)Nc1ccc([N+](=O)[O-])cc1` [Substrate XI, n^α -isobutyloxycarbonyl-Gly-Pro-Arg-p-Na.HCl], on human thrombin [2], the “susceptibility to human thrombin compared with N^α -Bz-Phe-Val-Arg-pNA.HCl” value is listed as “much higher”.

B1: human plasmin (Homo sapiens) (protein)
chain 1: VVGGCVAHPHSWPWQVSLRTRFGMHFCGGTLISPEWVLTAAHCLEKSPRPSSYKVILGAHQEVNLEPHVQEIEVSRLFLEPTRKDIALLKLSSPAVITDKVIPACLPSPNYVVADRTECFITGWGETQGTFGAGLLKEAQLPVIENKVCNRYEFLNGRVQSTELCAGHLAGGTDSCQGDSGGPLVCFEKDKYILQGVTSWGLGCARPNKPGVYVRVSRFVTWIEGVMRNN
chain 2: KVYLSECKTGNGKNYRGTMSKTKNGITCQKWSSTSPHRPRFSPATHPSEGLEENYCRNPDNDPQGPWCYTTDPEKRYDYCDILECEEECMHCSGENYDGKISKTMSGLECQAWDSQSPHAHGYIPSKFPNKNLKKNYCRNPDRELRPWCFTTDPNKRWELCDIPRCTTPPPSSGPTYQCLKGTGENYRGNVAVTVSGHTCQHWSAQTPHTHNRTPENFPCKNLDENYCRNPDGKRAPWCHTTNSQVRWEYCKIPSCDSSPVSTEQLAPTAPPELTPVVQDCYHGDGQSYRGTSSTTTTGKKCQSWSSMTPHRHQKTPENYPNAGLTMNYCRNPDADKGPWCFTTDPSVRWEYCNLKKCSGTEASVVAPPPVVLLPDVETPSEEDCMFGNGKGYRGKRATTVTGTPCQDWAAQEPHRHSIFTPETNPRAGLEKNYCRNPDGDVGGPWCYTTNPRKLYDYCDVPQCAAPSFDCGKPQVEPKKCPGR
notes: 0.4 CU/ml of human plasmin
B1: the Km in series [4] is 323 µM; in [5], 357 µM.

Broadly, the solubility is the concentration that dissolves in the medium under given conditions. As usually defined, the Km is the concentration of substrate that gives half-maximal velocity.
